Measurements published in PubChem BioAssay AID1259407 (Chemical Carcinogenesis Research Information System (CCRIS), 2018).
Active and inactive are the calls of the source. The rule behind the calls is not given here.

System: CCRIS mutagenicity, Ames/micronucleus/aberration tests
Experiment: CCRIS mutagenicity studies

SMILES: Cc1c(N)nc(C)c2c1[nH]c1ccccc12
- mutagenic call (Test System: AMES SALMONELLA TYPHIMURIUM, Strain/Indicator: TA98, Metabolic Activation: HUMAN, BLOOD, CYTOSOL, Method: PREINCUBATION): active; positive
- mutagenic call (Test System: AMES SALMONELLA TYPHIMURIUM, Strain/Indicator: TA98, Metabolic Activation: MONKEY, LIVER, S-9, Method: PREINCUBATION): active; positive
- mutagenic call (Test System: AMES SALMONELLA TYPHIMURIUM, Strain/Indicator: TA98, Metabolic Activation: MOUSE, LIVER, MICROSOMES, TCDD, Method: STANDARD PLATE): active; positive
- mutagenic call (Test System: AMES SALMONELLA TYPHIMURIUM, Strain/Indicator: TA98, Metabolic Activation: MOUSE, LIVER, MICROSOMES, Method: STANDARD PLATE): active; positive
- mutagenic call (Test System: AMES SALMONELLA TYPHIMURIUM, Strain/Indicator: TA98, Metabolic Activation: RAT, BLADDER, S-9, PCB, Method: FLUCTUATION TEST): active; positive
- mutagenic call (Test System: AMES SALMONELLA TYPHIMURIUM, Strain/Indicator: TA98, Metabolic Activation: RAT, HEPATOCYTES, AROCLOR 1254, Method: PREINCUBATION): active; positive
- mutagenic call (Test System: AMES SALMONELLA TYPHIMURIUM, Strain/Indicator: TA98, Metabolic Activation: RAT, LIVER, S-9, AROCLOR 1254, Method: PREINCUBATION): active; positive
- mutagenic call (Test System: AMES SALMONELLA TYPHIMURIUM, Strain/Indicator: TA100, Metabolic Activation: RAT, BLADDER, S-9, PCB, Method: FLUCTUATION TEST): active; positive
- mutagenic call (Test System: AMES SALMONELLA TYPHIMURIUM, Strain/Indicator: TA100, Metabolic Activation: RAT, LIVER, S-9, AROCLOR 1254, Method: PREINCUBATION): inactive; negative
- mutagenic call (Test System: AMES SALMONELLA TYPHIMURIUM, Strain/Indicator: YG1019, Metabolic Activation: RAT LIVER S-9, AROCLOR, Method: PREINCUBATION): active; positive
- mutagenic call (Test System: CHINESE HAMSTER V-79, Strain/Indicator: V-79/8-AZAGUANINE, Metabolic Activation: NONE, Method: SUSPENSION/PLATE): active; positive
- mutagenic call (Test System: CHINESE HAMSTER V-79, Strain/Indicator: V-79/8-AZAGUANINE, Metabolic Activation: S-9, Method: SUSPENSION/PLATE): active; positive
- mutagenic call (Test System: CHINESE HAMSTER V-79, Strain/Indicator: V-79/OUABAIN, Metabolic Activation: NONE, Method: SUSPENSION/PLATE): inactive; negative
- mutagenic call (Test System: CHINESE HAMSTER V-79, Strain/Indicator: V-79/OUABAIN, Metabolic Activation: S-9, Method: SUSPENSION/PLATE): inactive; negative
- mutagenic call (Test System: UDS HAMSTER HEPATOCYTES, Strain/Indicator: THY INCORP, Metabolic Activation: NONE, Method: LIQUID SCINTILLATION COUNTING): active; positive
- mutagenic call (Test System: UDS HUMAN HEPATOCYTES, Strain/Indicator: THY INCORP, Metabolic Activation: NONE, Method: AUTORADIOGRAPHY): active; positive
- mutagenic call (Test System: UDS MOUSE HEPATOCYTES, Strain/Indicator: THY INCORP, Metabolic Activation: NONE, Method: AUTORADIOGRAPHY): active; positive
- mutagenic call (Test System: UDS RAT HEPATOCYTES, Strain/Indicator: THY INCORP, Metabolic Activation: NONE, Method: AUTORADIOGRAPHY): inactive; negative
- mutagenic call (Test System: UDS RAT HEPATOCYTES, Strain/Indicator: THY INCORP, Metabolic Activation: NONE, Method: LIQUID SCINTILLATION COUNTING): inactive; negative

SMILES: O=C(Cl)CCc1ccccc1
- mutagenic call (Test System: AMES SALMONELLA TYPHIMURIUM, Strain/Indicator: TA98, Metabolic Activation: NONE, Method: PREINCUBATION): active; positive
- mutagenic call (Test System: AMES SALMONELLA TYPHIMURIUM, Strain/Indicator: TA98, Metabolic Activation: RAT LIVER S-9, PCB, Method: PREINCUBATION): active; positive
- mutagenic call (Test System: AMES SALMONELLA TYPHIMURIUM, Strain/Indicator: TA100, Metabolic Activation: NONE, Method: PREINCUBATION): active; positive
- mutagenic call (Test System: AMES SALMONELLA TYPHIMURIUM, Strain/Indicator: TA100, Metabolic Activation: RAT LIVER S-9, PCB, Method: PREINCUBATION): active; positive
- mutagenic call (Test System: AMES SALMONELLA TYPHIMURIUM, Strain/Indicator: TA104, Metabolic Activation: NONE, Method: PREINCUBATION): active; positive
- mutagenic call (Test System: AMES SALMONELLA TYPHIMURIUM, Strain/Indicator: TA104, Metabolic Activation: RAT LIVER S-9, PCB, Method: PREINCUBATION): active; positive
- mutagenic call (Test System: E.COLI, Strain/Indicator: WP2 UVRA, Metabolic Activation: NONE, Method: PREINCUBATION): inactive; negative
- mutagenic call (Test System: E.COLI, Strain/Indicator: WP2 UVRA, Metabolic Activation: RAT LIVER S-9, PCB, Method: PREINCUBATION): active; positive

SMILES: FC(F)(Cl)Cl
- mutagenic call (Test System: AMES SALMONELLA TYPHIMURIUM, Strain/Indicator: TA98, Metabolic Activation: NONE, Method: GAS EXPOSURE): inactive; negative
- mutagenic call (Test System: AMES SALMONELLA TYPHIMURIUM, Strain/Indicator: TA98, Metabolic Activation: RAT LIVER S-9, PHENOBARBITAL AND BETA-NAPHTHOFLAVONE (40%), Method: GAS EXPOSURE): inactive; negative
- mutagenic call (Test System: AMES SALMONELLA TYPHIMURIUM, Strain/Indicator: TA100, Metabolic Activation: NONE, Method: GAS EXPOSURE): inactive; negative
- mutagenic call (Test System: AMES SALMONELLA TYPHIMURIUM, Strain/Indicator: TA100, Metabolic Activation: RAT LIVER S-9, PHENOBARBITAL AND BETA-NAPHTHOFLAVONE (40%), Method: GAS EXPOSURE): inactive; negative
- mutagenic call (Test System: AMES SALMONELLA TYPHIMURIUM, Strain/Indicator: TA1535, Metabolic Activation: NONE, Method: GAS EXPOSURE): inactive; negative
- mutagenic call (Test System: AMES SALMONELLA TYPHIMURIUM, Strain/Indicator: TA1535, Metabolic Activation: RAT LIVER S-9, PHENOBARBITAL AND BETA-NAPHTHOFLAVONE (40%), Method: GAS EXPOSURE): inactive; negative
- mutagenic call (Test System: AMES SALMONELLA TYPHIMURIUM, Strain/Indicator: TA1537, Metabolic Activation: NONE, Method: GAS EXPOSURE): inactive; negative
- mutagenic call (Test System: AMES SALMONELLA TYPHIMURIUM, Strain/Indicator: TA1537, Metabolic Activation: RAT LIVER S-9, PHENOBARBITAL AND BETA-NAPHTHOFLAVONE (40%), Method: GAS EXPOSURE): inactive; negative
- mutagenic call (Test System: E.COLI, Strain/Indicator: WP2UVRA, Metabolic Activation: NONE, Method: GAS EXPOSURE): inactive; negative
- mutagenic call (Test System: E.COLI, Strain/Indicator: WP2UVRA, Metabolic Activation: RAT LIVER S-9, PHENOBARBITAL AND BETA-NAPHTHOFLAVONE (40%), Method: GAS EXPOSURE): inactive; negative

SMILES: C[C@@H]1CC[C@@]2(OC1)O[C@H]1C[C@H]3[C@@H]4CC=C5C[C@@H](O)CC[C@]5(C)[C@H]4CC[C@]3(C)[C@H]1[C@@H]2C
- mutagenic call (Test System: AMES SALMONELLA TYPHIMURIUM, Strain/Indicator: TA98, Metabolic Activation: HAMSTER, LIVER, S-9, AROCLOR 1254, Method: STANDARD PLATE): inactive; negative
- mutagenic call (Test System: AMES SALMONELLA TYPHIMURIUM, Strain/Indicator: TA98, Metabolic Activation: NONE, Method: STANDARD PLATE): inactive; negative
- mutagenic call (Test System: AMES SALMONELLA TYPHIMURIUM, Strain/Indicator: TA98, Metabolic Activation: RAT, LIVER, S-9, AROCLOR 1254, Method: STANDARD PLATE): inactive; negative
- mutagenic call (Test System: AMES SALMONELLA TYPHIMURIUM, Strain/Indicator: TA100, Metabolic Activation: HAMSTER, LIVER, S-9, AROCLOR 1254, Method: STANDARD PLATE): inactive; negative
- mutagenic call (Test System: AMES SALMONELLA TYPHIMURIUM, Strain/Indicator: TA100, Metabolic Activation: NONE, Method: STANDARD PLATE): inactive; negative
- mutagenic call (Test System: AMES SALMONELLA TYPHIMURIUM, Strain/Indicator: TA100, Metabolic Activation: RAT, LIVER, S-9, AROCLOR 1254, Method: STANDARD PLATE): inactive; negative
- mutagenic call (Test System: AMES SALMONELLA TYPHIMURIUM, Strain/Indicator: TA1535, Metabolic Activation: HAMSTER, LIVER, S-9, AROCLOR 1254, Method: STANDARD PLATE): inactive; negative
- mutagenic call (Test System: AMES SALMONELLA TYPHIMURIUM, Strain/Indicator: TA1535, Metabolic Activation: NONE, Method: STANDARD PLATE): inactive; negative
- mutagenic call (Test System: AMES SALMONELLA TYPHIMURIUM, Strain/Indicator: TA1535, Metabolic Activation: RAT, LIVER, S-9, AROCLOR 1254, Method: STANDARD PLATE): inactive; negative
- mutagenic call (Test System: AMES SALMONELLA TYPHIMURIUM, Strain/Indicator: TA1537, Metabolic Activation: HAMSTER, LIVER, S-9, AROCLOR 1254, Method: STANDARD PLATE): inactive; negative
- mutagenic call (Test System: AMES SALMONELLA TYPHIMURIUM, Strain/Indicator: TA1537, Metabolic Activation: NONE, Method: STANDARD PLATE): inactive; negative
- mutagenic call (Test System: AMES SALMONELLA TYPHIMURIUM, Strain/Indicator: TA1537, Metabolic Activation: RAT, LIVER, S-9, AROCLOR 1254, Method: STANDARD PLATE): inactive; negative
- mutagenic call (Test System: AMES SALMONELLA TYPHIMURIUM, Strain/Indicator: TA1538, Metabolic Activation: HAMSTER, LIVER, S-9, AROCLOR 1254, Method: STANDARD PLATE): inactive; negative
- mutagenic call (Test System: AMES SALMONELLA TYPHIMURIUM, Strain/Indicator: TA1538, Metabolic Activation: NONE, Method: STANDARD PLATE): inactive; negative
- mutagenic call (Test System: AMES SALMONELLA TYPHIMURIUM, Strain/Indicator: TA1538, Metabolic Activation: RAT, LIVER, S-9, AROCLOR 1254, Method: STANDARD PLATE): inactive; negative

SMILES: CCCN(CCCCO)N=O
- mutagenic call (Test System: AMES SALMONELLA TYPHIMURIUM, Strain/Indicator: TA1535, Metabolic Activation: RAT, LIVER, S-9, KC500 OR PHENOBARBITAL, Method: LIQUID SUSPENSION): active; positive
